Measurements: patent US10093938B2, “Regulated switch for gene expression” (The Johns Hopkins University, priority 2014, dated 2018)

Experiments:
Format in all cases: cell-based, Saccharomyces cerevisiae
cam-TA [1] = experiment: camphor-Off switch, GFP reporter (flow cytometry) in strain camG-TA
Method: To evaluate the performance of the system, we used GFP as a reporter.
However, another strain camG-TA that was constructed by introducing the […] expression cassette into the cam-TA strain produced significant amounts of GFP (FIG. 3C). From this, we conclude that cam-TA binds to camO and can activate the transcription of the reporter gene gfp.
Subsequently, the kinetics of the system was investigated using the camG-TA strain.
Cellular fluorescence from GFP was determined using a LSRII flow cytometer (Becton Dickinson, Franklin Lakes, N.J.) equipped with 488-nm argon ion laser (blue laser) and a 530/30-filter. All samples were suspended in sterile water, and 10,000 cells were analyzed per sample. Data acquisition and analysis were performed using FACSDiva software (Becton Dickinson) and FlowJo (Tree Star, Ashland, Oreg.).

cam-TA [2] = details: BY-TeCaOFF
Text: (§1) FIG. 6. Independent regulation of fluorescent reporters, RFP and GFP, with camphor-Off and Tet-Off systems. (A) pSIB859 can be used for integrating the camphor-Off system at a single transformation. Its derivative plasmid pSIB872 carries mCherry as a reporter. (B) Plasmid pSIB498 for the Tet-Off system. Its derivative pSIB527 carries gfp as a reporter. (C)-(F) Strain BY-TeCaOFF carries both pSIB872 and pSIB527. Cell images in SC medium (C), SC with camphor (D), SC with Dox (E), and SC with camphor and Dox. The top, middle, and bottom rows represent images of RFP, GFP, and DIC, respectively. Strain BY-TeCaOFF was grown for 1 day in SC medium with the indicated compounds.
(§2) The experiments in this section were performed to examine whether the camphor-Off system was orthogonal/compatible with the Tet-Off system in a yeast strain. Firstly, we developed new two acceptor vectors: one was used for the camphor-Off switch and the other was the Tet-Off switch. […]
(§3) Cells were viewed with an Axioskop-2 microscope (Carl Zeiss, Oberkochen, Germany) equipped with an X-cite120 light source (ExFo, Ontario, Canada) and a fluorescence filter set. A 100× objective and AxioVision software were used to capture fluorescence and differential interference contrast (DIC) images.

cam-TA [3] = experiment: camphor-Off system with ADE2 reporter, growth on SC-Ade
Text: FIG. 4. […] The cells were 10-fold diluted in across each row.
Another gene ADE2 (SEQ ID No. 10) was used to further evaluate the camphor-Off system. Specifically, we investigated availability of the system to complement the adenine-auxotrophy in a camphor-dependent manner. […] On the other hand, another strain camA-TA, which had cam-TA differently from camA-EmV, grew in […] SC-Ade media (FIG. 4B). […] The reversion frequency is approximately 10^−3. The behavior of each strain was thoroughly consistent with the schematic model of the camphor-system (FIG. 2).

tTA (TetR-VP16 fusion) = biological target: T1, tTA (TetR-VP16 fusion) (Escherichia coli, UniProt P04483); experiment: Orthogonality: Tet-Off GFP reporter in strain BY-TeCaOFF (microscopy); details: 25 μM, 1 day in SC medium
T1 construct: expressed in transfected cells; host or cells: Saccharomyces cerevisiae strain BY-TeCaOFF (integrated pSIB527, CMV promoter)
Text: as §1, §2, §3

Sequence of cam-TA (as listed by the source): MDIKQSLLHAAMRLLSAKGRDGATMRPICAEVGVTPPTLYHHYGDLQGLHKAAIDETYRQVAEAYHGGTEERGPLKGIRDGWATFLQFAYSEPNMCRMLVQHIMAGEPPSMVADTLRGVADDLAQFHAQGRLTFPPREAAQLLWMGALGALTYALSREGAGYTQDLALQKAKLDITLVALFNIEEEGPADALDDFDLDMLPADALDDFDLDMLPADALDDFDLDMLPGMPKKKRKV

Substance: D-Camphor
- effective concentration for the camphor-Off system (cam-TA [1]; GFP reporter, camG-TA strain): 25 µM
- camphor concentration in the presence of which the GFP signal drastically decreased (cam-TA [1]; camG-TA strain in SC medium, camPr-gfp reporter): ≥ 25 µM
- period over which GFP intensity went to almost the same level as that of BY4741 (cam-TA [1]; camG-TA strain in the presence of camphor): 7 h
- corresponding reporter protein (mCherry, camphor-Off) on addition of the drug (cam-TA [2]; 25 μM, 1 day in SC medium): drastic decrease
- expression of mCherry reporter when both camphor and Dox were supplied (cam-TA [2]; camphor and Dox 25 μM each): repressed
- growth of strain camA-TA on SC-Ade media that contained camphor (cam-TA [3]; 100 μM camphor, 1 day at 30° C., camPr-ADE2): hardly proliferated at all
- reversion frequency (cam-TA [3]; camA-TA on SC-Ade media containing camphor): approximately 10^−3
- the other fluorescence (GFP, Tet-Off) on addition of camphor alone (tTA (TetR-VP16 fusion)): detected robustly
